Measured values from patent US20180021360A1, “Combination Therapy Regimen For Treatment Of Selected HCV Genotypes” (JANSSEN PHARMACEUTICALS, INC., priority 2016, published 2018).

Columns and labels:
[1] = Phase 2a open-label combination study, pharmacokinetics; format: in vivo, human
Procedure: A randomized, Phase 2a, open-label study was carried out to evaluate the safety, pharmacokinetics and efficacy of the combination of Compound (III), Odalasvir and Simeprevir in Genotype 1 treatment-naïve subjects with chronic hepatitis C. Other treatment-naïve subjects included Genotype 2, 3, 4, 5 and 6.
The aim of the study was to determine the efficacy, pharmacokinetics (PK), and safety of Compound (II)+Odalasvir±SMV in HCV-infected subjects.
This was an open-label study evaluating various dosing regimens of Compound (III)+Odalasvir±SMV for 6-8 weeks in treatment-nave HCV-infected subjects with varying clinical characteristics (e.g., GT 1 or 3, presence/absence of compensated Child Pugh A cirrhosis). Efficacy, PK and safety evaluations were conducted during and through 24 weeks post dosing. Up to 15 cohorts were enrolled; data was generated from cohorts that have completed dosing.

[2] = PK of single agents vs fixed dose combinations, single dose in healthy volunteers (Example 13); format: in vivo, human
Procedure: SMV (100 mg), ODV (50 mg), and Compound (III) (800 mg) were administered as three different formulations or together as single doses in vivo to healthy volunteers. The arms of the study included: • Arm 1 (Reference Arm): Single oral doses of single agents, one SMV 100-mg capsule, one ODV 50-mg tablet as granule layered solid dispersion with copovidone and poloxamers, and two Compound (III) 400-mg tablets, administered together. • Arm 2: Single oral dose of fixed dose combination (FDC02): SMV 100 mg+ODV 50 mg as a spray dried solid dispersion with HPMC-AS L in a ratio ODV/HPMC-AS L 1/1 w/w+Compound (III) 800 mg • Arm 3: Single oral dose of fixed dose combination (FDC04): SMV 100 mg+ODV 50 mg as a spray dried solid dispersion with HPMC-AS L in a ratio ODV/HPMC-AS L 1/3 w/w+Compound (III) 800 mg • Arm 4: Single oral dose of fixed dose combination (FDC01): SMV 100 mg+ODV 50 mg as a spray dried solid dispersion with copovidone and poloxamers+Compound (III) 800 mg
PK parameters, including Cmax, tmax, AUClast, and AUC∞ were measured for Compound (III), ODV, SMV, and metabolites Compound A-1 and Compound A-3 for each Arm of the study. Arms that included fixed dose combinations (FDC) (Arm 2, Arm 3, and Arm 4) were then compared to a single oral dose (Arm 1, the reference Arm). Table 9, Table 10, Table 11, Table 12 and Table 13 display relevant PK parameters and FIG. 9, FIG. 10, FIG. 11, FIG. 12, and FIG. 13 depict the plasma concentration over time of SMV, ODV, Compound A-1, and Compound A-3 for each Arm of the study.

HCV genotype 3 = test: activity against genotype 3 in vitro; design: species or system hepatitis C virus
P-gp = P-gp (Homo sapiens, UniProt P08183); conditions: cited from earlier work
MRP2 = MRP2 (Homo sapiens, UniProt Q92887); conditions: cited from earlier work
BSEP = BSEP (Homo sapiens, UniProt O95342); conditions: cited from earlier work
OATP1B3 = target: T1, OATP1B3 (Homo sapiens, UniProt Q9NPD5); conditions: cited from earlier work
T1 sequence (Q9NPD5 1-702): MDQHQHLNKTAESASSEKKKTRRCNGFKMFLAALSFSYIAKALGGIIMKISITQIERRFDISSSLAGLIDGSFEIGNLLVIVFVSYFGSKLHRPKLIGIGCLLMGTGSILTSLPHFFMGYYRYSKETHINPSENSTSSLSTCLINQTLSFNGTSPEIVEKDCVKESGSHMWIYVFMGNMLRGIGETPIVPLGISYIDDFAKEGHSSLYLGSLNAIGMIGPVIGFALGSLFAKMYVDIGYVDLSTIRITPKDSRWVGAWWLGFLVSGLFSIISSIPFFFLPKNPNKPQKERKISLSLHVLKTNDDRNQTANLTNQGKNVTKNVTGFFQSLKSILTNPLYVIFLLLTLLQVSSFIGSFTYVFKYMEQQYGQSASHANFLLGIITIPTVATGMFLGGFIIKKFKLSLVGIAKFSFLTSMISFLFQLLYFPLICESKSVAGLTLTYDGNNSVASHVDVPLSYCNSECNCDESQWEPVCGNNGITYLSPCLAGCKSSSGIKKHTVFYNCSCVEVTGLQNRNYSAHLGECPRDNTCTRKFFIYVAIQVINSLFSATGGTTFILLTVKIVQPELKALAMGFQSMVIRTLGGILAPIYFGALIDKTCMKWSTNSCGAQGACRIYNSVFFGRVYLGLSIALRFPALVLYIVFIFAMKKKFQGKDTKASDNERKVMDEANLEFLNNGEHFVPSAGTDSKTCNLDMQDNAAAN

CYP = CYP inhibition potential; conditions: any CYP

Sequence of P-gp (P08183 whole entry): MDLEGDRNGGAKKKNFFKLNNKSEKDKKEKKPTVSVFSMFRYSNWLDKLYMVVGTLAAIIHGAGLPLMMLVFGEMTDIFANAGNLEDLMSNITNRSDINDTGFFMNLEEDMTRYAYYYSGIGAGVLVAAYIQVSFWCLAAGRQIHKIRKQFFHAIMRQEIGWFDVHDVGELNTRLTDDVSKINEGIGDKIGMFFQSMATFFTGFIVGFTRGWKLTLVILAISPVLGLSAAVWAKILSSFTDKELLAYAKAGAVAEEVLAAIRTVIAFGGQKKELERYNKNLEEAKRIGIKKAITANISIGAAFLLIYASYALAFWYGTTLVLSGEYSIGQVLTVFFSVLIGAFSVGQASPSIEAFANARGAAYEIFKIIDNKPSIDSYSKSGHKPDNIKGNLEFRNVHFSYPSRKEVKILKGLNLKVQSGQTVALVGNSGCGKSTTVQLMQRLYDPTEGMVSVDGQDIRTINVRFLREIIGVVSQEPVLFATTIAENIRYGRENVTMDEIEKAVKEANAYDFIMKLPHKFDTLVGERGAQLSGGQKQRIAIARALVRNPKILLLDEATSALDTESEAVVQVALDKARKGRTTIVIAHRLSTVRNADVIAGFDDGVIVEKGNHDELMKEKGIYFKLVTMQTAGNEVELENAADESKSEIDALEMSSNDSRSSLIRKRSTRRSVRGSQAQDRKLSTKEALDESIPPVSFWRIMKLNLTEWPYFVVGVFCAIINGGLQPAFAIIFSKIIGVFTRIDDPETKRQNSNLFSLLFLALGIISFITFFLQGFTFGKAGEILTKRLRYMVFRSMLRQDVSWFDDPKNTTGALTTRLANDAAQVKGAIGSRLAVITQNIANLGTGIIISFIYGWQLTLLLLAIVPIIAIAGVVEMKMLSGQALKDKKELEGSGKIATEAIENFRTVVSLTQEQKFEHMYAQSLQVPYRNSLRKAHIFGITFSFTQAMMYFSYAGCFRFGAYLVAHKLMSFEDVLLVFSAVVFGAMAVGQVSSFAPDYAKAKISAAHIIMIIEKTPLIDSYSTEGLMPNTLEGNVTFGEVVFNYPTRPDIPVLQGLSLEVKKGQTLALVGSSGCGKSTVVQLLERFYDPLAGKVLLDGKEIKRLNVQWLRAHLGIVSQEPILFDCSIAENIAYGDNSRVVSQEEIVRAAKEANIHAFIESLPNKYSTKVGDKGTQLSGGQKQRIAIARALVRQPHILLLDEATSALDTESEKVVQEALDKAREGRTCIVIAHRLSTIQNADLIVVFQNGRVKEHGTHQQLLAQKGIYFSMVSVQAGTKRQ
Sequence of BSEP (O95342 whole entry): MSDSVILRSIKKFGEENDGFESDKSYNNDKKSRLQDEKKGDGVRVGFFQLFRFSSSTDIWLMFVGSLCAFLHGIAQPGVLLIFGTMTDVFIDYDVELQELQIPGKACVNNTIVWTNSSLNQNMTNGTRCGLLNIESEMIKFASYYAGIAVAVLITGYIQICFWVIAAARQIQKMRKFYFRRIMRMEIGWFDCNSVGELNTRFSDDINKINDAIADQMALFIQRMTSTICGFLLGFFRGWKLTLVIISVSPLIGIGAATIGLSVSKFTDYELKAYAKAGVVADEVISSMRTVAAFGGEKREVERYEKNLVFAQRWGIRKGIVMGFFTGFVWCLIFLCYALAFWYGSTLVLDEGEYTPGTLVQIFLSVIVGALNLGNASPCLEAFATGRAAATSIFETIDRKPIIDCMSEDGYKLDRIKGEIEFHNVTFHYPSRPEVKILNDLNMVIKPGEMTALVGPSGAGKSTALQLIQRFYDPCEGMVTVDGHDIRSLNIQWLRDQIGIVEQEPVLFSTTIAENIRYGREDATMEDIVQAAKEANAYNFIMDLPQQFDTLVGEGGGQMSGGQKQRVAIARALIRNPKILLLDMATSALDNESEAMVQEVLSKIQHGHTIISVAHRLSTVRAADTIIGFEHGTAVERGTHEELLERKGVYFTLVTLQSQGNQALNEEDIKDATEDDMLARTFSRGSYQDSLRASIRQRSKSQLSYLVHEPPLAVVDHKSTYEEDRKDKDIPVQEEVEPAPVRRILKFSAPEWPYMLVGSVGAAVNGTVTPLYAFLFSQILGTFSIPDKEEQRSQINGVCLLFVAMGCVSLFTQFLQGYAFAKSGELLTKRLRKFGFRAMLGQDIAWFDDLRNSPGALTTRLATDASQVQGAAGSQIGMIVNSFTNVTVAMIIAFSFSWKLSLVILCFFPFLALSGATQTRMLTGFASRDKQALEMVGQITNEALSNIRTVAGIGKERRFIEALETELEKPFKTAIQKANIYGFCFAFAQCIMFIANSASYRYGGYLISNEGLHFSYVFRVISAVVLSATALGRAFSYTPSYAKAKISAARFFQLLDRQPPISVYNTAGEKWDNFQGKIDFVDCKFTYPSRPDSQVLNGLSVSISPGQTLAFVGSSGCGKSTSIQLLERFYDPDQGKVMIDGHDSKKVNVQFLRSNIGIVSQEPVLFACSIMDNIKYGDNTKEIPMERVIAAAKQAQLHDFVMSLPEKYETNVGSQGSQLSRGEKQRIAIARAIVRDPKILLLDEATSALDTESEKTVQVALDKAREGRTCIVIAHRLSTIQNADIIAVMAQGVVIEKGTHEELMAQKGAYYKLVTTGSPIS
Sequence of MRP2 (Q92887 whole entry): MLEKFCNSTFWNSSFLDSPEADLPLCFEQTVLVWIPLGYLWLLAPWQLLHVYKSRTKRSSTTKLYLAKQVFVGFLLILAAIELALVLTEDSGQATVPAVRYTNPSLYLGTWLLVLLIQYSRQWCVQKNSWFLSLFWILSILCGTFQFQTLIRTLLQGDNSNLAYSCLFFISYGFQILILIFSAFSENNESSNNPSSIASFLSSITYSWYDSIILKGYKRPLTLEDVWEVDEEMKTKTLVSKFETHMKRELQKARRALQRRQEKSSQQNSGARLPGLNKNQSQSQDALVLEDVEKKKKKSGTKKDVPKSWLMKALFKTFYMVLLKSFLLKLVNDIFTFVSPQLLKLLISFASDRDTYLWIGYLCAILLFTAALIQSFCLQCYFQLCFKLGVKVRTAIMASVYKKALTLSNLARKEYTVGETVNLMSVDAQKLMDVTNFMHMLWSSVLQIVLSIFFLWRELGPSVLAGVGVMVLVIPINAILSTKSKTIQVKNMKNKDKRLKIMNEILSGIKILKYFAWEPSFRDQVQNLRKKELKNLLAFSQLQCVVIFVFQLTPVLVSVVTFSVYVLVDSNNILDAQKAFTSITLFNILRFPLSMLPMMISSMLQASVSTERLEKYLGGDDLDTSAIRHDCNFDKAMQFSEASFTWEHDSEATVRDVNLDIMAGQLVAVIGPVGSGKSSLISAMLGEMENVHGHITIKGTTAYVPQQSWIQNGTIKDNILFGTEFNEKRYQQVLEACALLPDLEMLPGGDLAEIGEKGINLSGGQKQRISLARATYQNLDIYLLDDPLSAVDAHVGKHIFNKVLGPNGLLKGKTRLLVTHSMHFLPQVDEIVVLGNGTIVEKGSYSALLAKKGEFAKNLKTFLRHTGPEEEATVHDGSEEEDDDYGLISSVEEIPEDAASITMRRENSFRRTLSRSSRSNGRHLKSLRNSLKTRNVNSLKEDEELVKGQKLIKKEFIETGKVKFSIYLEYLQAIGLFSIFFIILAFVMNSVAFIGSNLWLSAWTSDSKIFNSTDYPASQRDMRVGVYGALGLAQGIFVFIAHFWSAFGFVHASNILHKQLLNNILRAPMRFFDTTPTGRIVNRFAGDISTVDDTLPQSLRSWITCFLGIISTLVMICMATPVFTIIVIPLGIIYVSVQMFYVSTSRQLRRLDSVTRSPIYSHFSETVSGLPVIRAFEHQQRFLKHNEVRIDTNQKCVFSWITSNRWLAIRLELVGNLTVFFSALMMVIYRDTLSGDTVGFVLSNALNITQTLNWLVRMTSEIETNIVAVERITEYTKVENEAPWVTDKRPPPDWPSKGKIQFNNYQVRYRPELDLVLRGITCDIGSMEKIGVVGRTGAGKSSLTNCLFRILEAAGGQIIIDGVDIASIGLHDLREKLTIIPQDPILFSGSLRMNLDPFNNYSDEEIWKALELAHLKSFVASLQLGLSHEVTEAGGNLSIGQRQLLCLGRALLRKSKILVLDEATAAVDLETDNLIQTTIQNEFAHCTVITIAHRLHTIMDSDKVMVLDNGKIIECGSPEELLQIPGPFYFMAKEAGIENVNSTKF

Question: With COC(=O)N[C@H](C(=O)N1[C@H](c2nc3cc(-c4cc5ccc4CCc4ccc(c(-c6ccc7[nH]c([C@@H]8C[C@@H]9CCCC[C@@H]9N8C(=O)[C@@H](NC(=O)OC)C(C)C)nc7c6)c4)CC5)ccc3[nH]2)C[C@@H]2CCCC[C@@H]21)C(C)C [Odalasvir, methyl [(2,)-1-[(2S,3aS,7aS)-2-[6-[11-[2-[(2S,3aS,7aS)-1-[(2S)-2-[(methoxycarbonyl)amino]-3-methylbutanoyl]octahydro-1H-indol-2-yl]-1H-benzimidazol-6-yl]tricyclo[8.2.2.2^4,7]hexadeca-1(12),4,6,10,13,15-hexaen-5-yl]-1H-benzimidazol-2-yl]octahydro-1H-indol-1-yl]-3-methyl-1-oxobutan-2-yl]carbamate] as the compound, how does the “observed exposures in Cohort 1 / group (i)” value ([1]; Compound (III) 400 mg, ODV 50 mg QD, SMV 100 mg QD) read?
Answer: higher than anticipated

Question: What about the “decrease of ODV exposure on reducing ODV dosing from QD to QOD” value ([1]; in vivo) of the same compound?
Answer: proportionally

Question: What about the t1/2term ([2]; Arm 1 (reference): single agents, mean ± SD) of the same compound?
Answer: 168.6 ± 21.7 h

Question: And the “Least Square Means Ratio, Cmax” value ([2]; Arm 2 (FDC02) vs reference)?
Answer: 81.00%

Question: What about the “AUC∞” value ([2]; Arm 2: FDC02, mean ± SD) of the same compound?
Answer: 7040 ± 2130 ng·h/mL

Question: What about the t1/2term ([2]; Arm 2: FDC02, mean ± SD) of the same compound?
Answer: 169.0 ± 24.5 h

Question: And the t1/2term ([2]; Arm 3: FDC04, mean ± SD)?
Answer: 176.0 ± 29.5 h

Question: And the Cmax ([2]; Arm 4: FDC01 (SMV 100 mg + ODV 50 mg spray dried with copovidone and poloxamers + Compound (III) 800 mg), mean ± SD)?
Answer: 298 ± 81.7 ng/mL

Question: What about the AUClast ([2]; Arm 4: FDC01, mean ± SD) of the same compound?
Answer: 11127 ± 3354 ng·h/mL

Question: And the t1/2term ([2]; Arm 4: FDC01, mean ± SD)?
Answer: 167.8 ± 22.4 h

Question: What about the “activity against genotype 3 in vitro” value (HCV genotype 3) of the same compound?
Answer: effective

Question: What about the “in vitro inhibition of P-gp” value (P-gp) of the same compound?
Answer: moderate inhibition

Question: What about the “in vitro inhibition of MRP2” value (MRP2) of the same compound?
Answer: no inhibition

Question: What about the “in vitro inhibition of BSEP” value (BSEP) of the same compound?
Answer: no inhibition

Question: And the “in vitro inhibition of OATP1B3” value (OATP1B3)?
Answer: no inhibition

Question: What about the CYP inhibition potential (CYP) of the same compound?
Answer: does not inhibit
